“And” between values parts separate entries of the source, which are not always exact repeats. Equal values may be shown once. “Also recorded” adds a separate entry of the source.
Legend:
SARS‐CoV‐2 PL^pro = SARS‐CoV‐2 PL^pro (Severe acute respiratory syndrome coronavirus 2, UniProt P0DTD1); experiment: biochemical; format: biochemical; settings: for inhibition of SARS-CoV-2 PLpro: 1 µM
SARS‐CoV PL^pro = SARS‐CoV PL^pro (Severe acute respiratory syndrome coronavirus, UniProt P0C6X7); experiment: biochemical; format: biochemical; settings: for inhibition of SARS-CoV PLpro: 10 µM
SARS‐CoV‐2 = format: cell-based
[1] = biological target: interaction of the RBD of the SARS‐CoV‐2 S protein with the ACE2 receptor (Severe acute respiratory syndrome coronavirus 2, UniProt P0DTC2); format: binding; settings: for inhibition of the S/ACE2 interaction: 20 µM

Row | Molecule | concentration up to which no significant cytotoxic effects / tolerated well (Caco‐2 cells) [µM] | IC50 (SARS‐CoV‐2 PL^pro) [nM] | IC50 SARS‐CoV‐2 PL^pro (SARS‐CoV‐2 PL^pro) | inhibition of SARS-CoV-2 PLpro (SARS‐CoV‐2 PL^pro) | IC50 (SARS‐CoV PL^pro) [nM] | IC50 SARS‐CoV PL^pro (SARS‐CoV PL^pro) | inhibition of SARS-CoV PLpro (SARS‐CoV PL^pro) | antiviral effect against SARS‐CoV‐2 replication (in words) (SARS‐CoV‐2) | concentration up to which no significant cytotoxic effects / tolerated well (CaLu‐3 cells) [µM] | inhibition of the S/ACE2 interaction [1] [%] | activity against SARS‐CoV‐2 PL^pro (in words) (SARS‐CoV‐2 PL^pro) | activity against SARS‐CoV PL^pro (in words) (SARS‐CoV PL^pro) | concentration at which antiviral effects were shown (SARS‐CoV‐2) | IC50 ([1]; read-out: IC50 as inhibitors of the S/ACE2 interaction) [µM] | cytotoxicity (in words) (Caco‐2 cells) | cytotoxicity (in words) (CaLu‐3 cells)
1 | O=C(O)CC([S-])C(=O)O.[Au+] (stereo not drawn) [Au‐2, aurothiomalate, reference compound] | ≥ 500 | 600 ± 250 | Submicromolar | 64% and > 50% | 690 ± 200 | Submicromolar | 91% and > 50% | not active | ≥ 500 | 18 |  |  |  |  |  | 
2 | CCn1[c]([Au-][Cl])[n+](CC)c2cc(C(=O)OC)ccc21 [Au‐12] |  | 1100 ± 60 |  |  | 330 ± 110 |  |  | at 6.25 and 25 μM concentrations efficiently inhibited; also recorded: antiviral activity starting at low micromolar concentrations |  | 19 |  |  |  |  |  | 
3 | CO[C@H]1O[C@H](CNC(=O)C2CCN(C(=S)[S-])CC2)[C@@H](O)[C@H](O)[C@H]1O.[Au+3].[Br-].[Br-] [Au‐33] | ≥ 500 | 210 ± 40 |  | 99% | 1040 ± 270 |  | 78% | inactive at low dosages; also recorded: completely blocked SARS‐CoV‐2 at 500 μM; also recorded: strongly blocked viral replication at a high dosage of 500 μM | ≥ 500 | 10 |  |  |  |  |  | 
4 | CO[C@H]1O[C@H](CO)[C@@H](O)[C@H](O)[C@H]1NC(=O)C1CCN(C(=S)[S-])CC1.[Au+3].[Br-].[Br-] [Au‐34] | ≥ 500 | 90 ± 40 |  | 98% | 1150 ± 340 |  | 86% | inactive at low dosages; also recorded: completely blocked SARS‐CoV‐2 at 500 μM; also recorded: strongly blocked viral replication at a high dosage of 500 μM | ≥ 500 | 15 |  |  |  |  |  | 
5 | CCC(CC)COC(=O)[C@H](C)N[P@](=O)(OC[C@H]1O[C@@](C#N)(c2ccc3c(N)ncnn23)[C@H](O)[C@@H]1O)Oc1ccccc1 [Remdesivir, remdesivir, reference compound] |  |  |  |  |  |  |  | efficiently inhibited viral replication at low micromolar concentrations |  |  |  |  |  |  |  | 
6 | [Cl-].[Cl-].[Ti+4].c1cc[cH-]c1.c1cc[cH-]c1 [Ti‐1, titanocene dichloride, reference compound] | ≥ 500 |  |  | -13% |  |  | 6% | active at 125 and 500 μM; also recorded: strongly blocked viral replication at a high dosage of 500 μM | ≥ 500 | 69 | inactive | inactive | higher than 100 μM | 3.9 ± 0.3 |  | 
7 | Na12[SnO8Pd12(PO4)8] ⋅ 43H2O [POM‐2] | ≥ 200 |  |  | 66% |  |  | 100% |  | ≥ 200 | 50 |  |  |  |  |  | 
8 | Rb5.5Na4.5[{(p‐tolyl)Sb}4(PW9O34)2] ⋅ 40H2O [POM‐6] |  |  |  | 58% |  |  | 80% |  |  | 91 |  |  |  |  | strongly toxic | strongly toxic
9 | Rb6Na6[{(p‐tolyl)Sb}4(GeW9 O34)2] ⋅ 40H2O [POM‐7] |  |  |  | 67% |  |  | 92% |  |  | 98 |  |  |  |  | strongly toxic | strongly toxic
10 | [Pd16Na2O26 (OH)3Cl3((CH3)2As)8] ⋅ 0.25Na(CH3)2AsO2 ⋅ 17H2O [POM‐11] | ≥ 200 |  |  | 85% |  |  | 100% | antiviral activity starting at low micromolar concentrations | ≥ 200 | 75 |  |  | 50 µM |  |  | 

From PMC8653295 (Chemistry (Weinheim an Der Bergstrasse, Germany), 2021)
